# Legend:
# Assay in all cases: KINOMEscan competition binding
# Settings in all cases: compound 1.0 µM
# ACVR1 (human) = ACVR1 (human) (UniProt Q04771)
# MKNK2 (human) = MKNK2 (human) (UniProt Q9HBH9)
# EPHA1 (human) = EPHA1 (human) (UniProt P21709)
# SGK110 (human) = SGK110 (human) (UniProt P0C264)
# CDK17 (human) = CDK17 (human) (UniProt Q00537)
# STK11 (human) = STK11 (human) (UniProt Q15831)
# PIM2 (human) = PIM2 (human) (UniProt Q9P1W9)
# HIPK3 (human) = HIPK3 (human) (UniProt Q9H422)
# MYO3B (human) = MYO3B (human) (UniProt Q8WXR4)
# MAP3K6 (human) = MAP3K6 (human) (UniProt O95382)
# PLK1 (human) = PLK1 (human) (UniProt P53350)
# PLK1 (human), sequence (P53350 whole entry, looked up): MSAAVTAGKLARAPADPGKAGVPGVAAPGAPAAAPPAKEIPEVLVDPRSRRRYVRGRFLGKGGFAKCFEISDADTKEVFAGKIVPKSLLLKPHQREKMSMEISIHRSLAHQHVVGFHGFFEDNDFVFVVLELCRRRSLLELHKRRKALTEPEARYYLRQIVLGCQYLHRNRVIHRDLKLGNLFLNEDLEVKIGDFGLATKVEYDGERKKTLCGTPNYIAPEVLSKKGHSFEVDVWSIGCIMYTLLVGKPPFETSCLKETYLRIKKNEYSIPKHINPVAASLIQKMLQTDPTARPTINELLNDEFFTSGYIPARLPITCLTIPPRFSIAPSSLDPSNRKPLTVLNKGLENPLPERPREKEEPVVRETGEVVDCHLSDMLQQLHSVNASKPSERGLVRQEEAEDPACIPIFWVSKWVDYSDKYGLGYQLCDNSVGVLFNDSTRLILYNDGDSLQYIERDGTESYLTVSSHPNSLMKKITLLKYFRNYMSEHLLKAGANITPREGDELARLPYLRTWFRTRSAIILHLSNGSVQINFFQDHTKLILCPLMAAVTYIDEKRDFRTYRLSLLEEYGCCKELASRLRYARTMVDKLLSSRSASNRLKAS
# DCLK3 (human) = DCLK3 (human) (UniProt Q9C098)
# [1] = test system: RET (human), P07949 [V804M]
# RET (human), P07949 [V804M], sequence (P07949 whole entry V804M, looked up): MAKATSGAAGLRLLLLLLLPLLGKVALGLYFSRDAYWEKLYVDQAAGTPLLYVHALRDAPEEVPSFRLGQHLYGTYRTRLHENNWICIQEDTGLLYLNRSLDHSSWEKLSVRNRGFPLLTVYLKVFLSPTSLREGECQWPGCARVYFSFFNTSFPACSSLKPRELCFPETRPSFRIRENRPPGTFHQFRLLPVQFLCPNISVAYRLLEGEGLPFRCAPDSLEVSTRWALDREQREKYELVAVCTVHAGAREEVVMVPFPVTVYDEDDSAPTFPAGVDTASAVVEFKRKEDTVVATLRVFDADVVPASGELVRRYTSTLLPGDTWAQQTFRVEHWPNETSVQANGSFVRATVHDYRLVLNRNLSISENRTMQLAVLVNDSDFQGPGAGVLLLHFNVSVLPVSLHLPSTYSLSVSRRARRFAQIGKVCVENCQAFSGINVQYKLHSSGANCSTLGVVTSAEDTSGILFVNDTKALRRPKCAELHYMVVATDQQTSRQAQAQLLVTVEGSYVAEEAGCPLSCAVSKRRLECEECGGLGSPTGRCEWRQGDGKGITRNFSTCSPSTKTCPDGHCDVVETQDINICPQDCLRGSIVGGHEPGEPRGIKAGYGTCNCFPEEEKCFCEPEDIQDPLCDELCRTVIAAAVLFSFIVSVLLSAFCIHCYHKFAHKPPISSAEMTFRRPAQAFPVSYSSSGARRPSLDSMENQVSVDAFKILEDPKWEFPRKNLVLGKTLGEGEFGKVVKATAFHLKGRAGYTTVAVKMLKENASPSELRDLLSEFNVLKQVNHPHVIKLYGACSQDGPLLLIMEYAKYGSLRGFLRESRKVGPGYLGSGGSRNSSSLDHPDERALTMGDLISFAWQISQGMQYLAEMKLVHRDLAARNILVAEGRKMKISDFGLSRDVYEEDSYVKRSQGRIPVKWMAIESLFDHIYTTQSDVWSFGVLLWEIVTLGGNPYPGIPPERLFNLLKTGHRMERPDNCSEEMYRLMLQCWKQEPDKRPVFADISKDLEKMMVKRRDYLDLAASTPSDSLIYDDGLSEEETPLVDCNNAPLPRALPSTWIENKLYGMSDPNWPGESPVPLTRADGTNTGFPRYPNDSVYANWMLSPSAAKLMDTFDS
# CDK4 CCND1 (human) = CDK4 CCND1 (human) (UniProt P11802+P24385)
# [2] = test system: ABL1 (human), P00519 [E255K]
# YES1 (human) = YES1 (human) (UniProt P07947)
# FGFR4 (human) = FGFR4 (human) (UniProt P22455)
# CDK13 (human) = CDK13 (human) (UniProt Q14004)
# MAP3K5 (human) = MAP3K5 (human) (UniProt Q99683)
# BRSK1 (human) = BRSK1 (human) (UniProt Q8TDC3)
# PAK1 (human) = PAK1 (human) (UniProt Q13153)
# SRMS (human) = SRMS (human) (UniProt Q9H3Y6)
# LATS1 (human) = LATS1 (human) (UniProt O95835)
# GRK1 (human) = GRK1 (human) (UniProt Q15835)
# PDGFRA (human) = PDGFRA (human) (UniProt P16234)
# PDGFRA (human), sequence (P16234 whole entry, looked up): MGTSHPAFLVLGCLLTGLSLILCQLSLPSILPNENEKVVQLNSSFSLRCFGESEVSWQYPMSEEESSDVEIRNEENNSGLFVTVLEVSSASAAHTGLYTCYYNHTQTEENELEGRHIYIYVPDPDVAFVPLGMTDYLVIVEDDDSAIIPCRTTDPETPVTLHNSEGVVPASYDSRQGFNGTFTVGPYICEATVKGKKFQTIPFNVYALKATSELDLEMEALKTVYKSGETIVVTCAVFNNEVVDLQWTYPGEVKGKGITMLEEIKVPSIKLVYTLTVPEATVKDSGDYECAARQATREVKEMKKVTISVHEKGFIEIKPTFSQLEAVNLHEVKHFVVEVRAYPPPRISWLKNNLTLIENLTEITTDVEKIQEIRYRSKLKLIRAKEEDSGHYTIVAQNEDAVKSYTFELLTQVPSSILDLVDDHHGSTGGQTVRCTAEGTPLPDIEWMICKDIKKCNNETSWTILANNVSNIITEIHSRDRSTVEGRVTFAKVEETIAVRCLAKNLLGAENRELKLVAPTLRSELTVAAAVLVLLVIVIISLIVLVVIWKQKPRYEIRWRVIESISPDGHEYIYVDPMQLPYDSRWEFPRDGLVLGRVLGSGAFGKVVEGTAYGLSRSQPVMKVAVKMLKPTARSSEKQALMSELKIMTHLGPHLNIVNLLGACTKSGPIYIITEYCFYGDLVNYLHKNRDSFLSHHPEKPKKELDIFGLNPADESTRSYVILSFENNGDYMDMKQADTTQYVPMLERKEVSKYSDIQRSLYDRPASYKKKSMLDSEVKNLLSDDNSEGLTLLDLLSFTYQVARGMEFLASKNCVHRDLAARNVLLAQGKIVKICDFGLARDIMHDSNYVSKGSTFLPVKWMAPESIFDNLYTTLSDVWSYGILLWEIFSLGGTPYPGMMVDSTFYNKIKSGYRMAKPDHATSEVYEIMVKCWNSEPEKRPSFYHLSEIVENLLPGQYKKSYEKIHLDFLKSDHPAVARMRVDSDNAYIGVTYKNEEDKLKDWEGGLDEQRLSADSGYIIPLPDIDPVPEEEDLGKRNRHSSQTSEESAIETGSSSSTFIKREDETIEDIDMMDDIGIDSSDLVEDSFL
# MAP4K2 (human) = MAP4K2 (human) (UniProt Q12851)
# CIT (human) = CIT (human) (UniProt O14578)
# HIPK1 (human) = HIPK1 (human) (UniProt Q86Z02)
# [3] = test system: FLT3 (human), P36888 [D835H]
# RPS6KA6 KD1 (human) = RPS6KA6 KD1 (human) (UniProt Q9UK32)
# CSNK1D (human) = CSNK1D (human) (UniProt P48730)
# RPS6KA1 KD1 (human) = RPS6KA1 KD1 (human) (UniProt Q15418)
# RPS6KA1 KD1 (human), sequence (Q15418 whole entry, looked up): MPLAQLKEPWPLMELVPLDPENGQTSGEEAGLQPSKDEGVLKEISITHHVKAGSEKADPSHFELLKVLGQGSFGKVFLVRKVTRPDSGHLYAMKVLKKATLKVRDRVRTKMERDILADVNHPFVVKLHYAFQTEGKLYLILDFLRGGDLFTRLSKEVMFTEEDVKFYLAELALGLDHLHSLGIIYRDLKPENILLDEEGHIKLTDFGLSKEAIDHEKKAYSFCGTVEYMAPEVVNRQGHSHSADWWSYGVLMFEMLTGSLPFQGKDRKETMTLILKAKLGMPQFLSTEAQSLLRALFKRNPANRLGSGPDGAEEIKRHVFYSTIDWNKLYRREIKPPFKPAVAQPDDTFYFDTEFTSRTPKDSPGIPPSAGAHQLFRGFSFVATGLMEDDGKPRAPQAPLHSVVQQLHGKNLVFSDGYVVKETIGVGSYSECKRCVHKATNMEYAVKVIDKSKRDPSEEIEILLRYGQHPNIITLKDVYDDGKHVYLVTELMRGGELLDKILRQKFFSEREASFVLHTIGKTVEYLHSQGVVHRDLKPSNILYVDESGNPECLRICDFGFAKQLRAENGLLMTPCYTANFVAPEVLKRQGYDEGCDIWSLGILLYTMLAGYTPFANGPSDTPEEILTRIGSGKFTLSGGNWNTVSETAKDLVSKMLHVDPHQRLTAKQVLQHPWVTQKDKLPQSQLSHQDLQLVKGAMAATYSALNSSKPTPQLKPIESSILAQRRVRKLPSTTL
# PIP4K2B (human) = PIP4K2B (human) (UniProt P78356)
# MLTK (human) = MLTK (human) (UniProt Q9NYL2)
# MAPKAPK5 (human) = MAPKAPK5 (human) (UniProt Q8IW41)
# MAP3K3 (human) = MAP3K3 (human) (UniProt Q99759)
# OXSR1 (human) = OXSR1 (human) (UniProt O95747)
# RIOK1 (human) = RIOK1 (human) (UniProt Q9BRS2)
# EPHB3 (human) = EPHB3 (human) (UniProt P54753)
# MAP3K2 (human) = MAP3K2 (human) (UniProt Q9Y2U5)
# MAP3K2 (human), sequence (Q9Y2U5 whole entry, looked up): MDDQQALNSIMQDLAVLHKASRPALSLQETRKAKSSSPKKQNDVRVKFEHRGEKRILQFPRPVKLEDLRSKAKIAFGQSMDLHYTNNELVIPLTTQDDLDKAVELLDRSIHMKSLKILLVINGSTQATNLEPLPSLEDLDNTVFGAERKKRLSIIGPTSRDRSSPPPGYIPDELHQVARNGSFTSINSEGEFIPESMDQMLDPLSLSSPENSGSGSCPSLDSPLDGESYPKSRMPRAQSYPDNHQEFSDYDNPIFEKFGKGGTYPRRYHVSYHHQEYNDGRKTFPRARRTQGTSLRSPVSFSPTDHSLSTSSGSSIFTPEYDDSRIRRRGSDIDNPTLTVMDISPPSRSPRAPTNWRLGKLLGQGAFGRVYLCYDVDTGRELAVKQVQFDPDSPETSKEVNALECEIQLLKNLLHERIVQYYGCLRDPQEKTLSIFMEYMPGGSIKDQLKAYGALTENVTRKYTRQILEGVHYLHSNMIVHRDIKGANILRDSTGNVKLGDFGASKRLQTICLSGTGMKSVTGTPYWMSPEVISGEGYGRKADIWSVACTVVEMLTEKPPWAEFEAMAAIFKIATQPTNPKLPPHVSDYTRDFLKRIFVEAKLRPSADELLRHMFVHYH
# [4] = test system: FGFR3 (human), P22607 [G697C]
# FGFR3 (human), P22607 [G697C], sequence (P22607 whole entry G697C, looked up): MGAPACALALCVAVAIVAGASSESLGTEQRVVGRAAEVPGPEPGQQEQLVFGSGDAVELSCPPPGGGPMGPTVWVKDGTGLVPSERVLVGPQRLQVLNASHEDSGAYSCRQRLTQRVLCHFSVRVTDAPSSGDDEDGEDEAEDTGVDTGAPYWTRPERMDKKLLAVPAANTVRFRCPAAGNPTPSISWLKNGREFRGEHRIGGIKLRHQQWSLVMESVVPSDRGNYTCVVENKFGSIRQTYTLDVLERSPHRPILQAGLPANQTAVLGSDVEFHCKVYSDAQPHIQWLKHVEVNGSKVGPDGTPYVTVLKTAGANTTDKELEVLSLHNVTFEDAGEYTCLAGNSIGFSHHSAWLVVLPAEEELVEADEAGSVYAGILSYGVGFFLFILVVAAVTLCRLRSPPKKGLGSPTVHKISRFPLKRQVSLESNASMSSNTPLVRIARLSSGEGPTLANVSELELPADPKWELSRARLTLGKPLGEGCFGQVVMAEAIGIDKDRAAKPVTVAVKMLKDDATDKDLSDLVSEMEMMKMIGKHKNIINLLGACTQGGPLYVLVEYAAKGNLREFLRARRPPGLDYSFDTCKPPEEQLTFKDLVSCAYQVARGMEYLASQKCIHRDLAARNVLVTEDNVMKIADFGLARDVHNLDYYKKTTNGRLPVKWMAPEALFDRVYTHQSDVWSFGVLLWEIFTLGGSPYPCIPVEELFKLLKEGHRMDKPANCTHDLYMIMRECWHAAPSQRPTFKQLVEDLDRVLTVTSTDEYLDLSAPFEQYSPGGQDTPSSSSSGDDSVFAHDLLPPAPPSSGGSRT
# DAPK1 (human) = DAPK1 (human) (UniProt P53355)
# NIM1 (human) = NIM1 (human) (UniProt Q8IY84)
smiles,measurement,setting,value
COCCNCCCn1c(C(=O)CF)c(-c2ccc(C)cc2)c2c(N)ncnc21,"kinase still bound, per cent of control",ACVR1 (human),100%
same,"kinase still bound, per cent of control",MKNK2 (human),92%
same,"kinase still bound, per cent of control",EPHA1 (human),94%
same,"kinase still bound, per cent of control",SGK110 (human),100%
same,"kinase still bound, per cent of control",CDK17 (human),100%
same,"kinase still bound, per cent of control",STK11 (human),98%
same,"kinase still bound, per cent of control",PIM2 (human),99%
same,"kinase still bound, per cent of control",HIPK3 (human),100%
same,"kinase still bound, per cent of control",MYO3B (human),79%
same,"kinase still bound, per cent of control",MAP3K6 (human),100%
same,"kinase still bound, per cent of control",PLK1 (human),100%
same,"kinase still bound, per cent of control",DCLK3 (human),100%
same,"kinase still bound, per cent of control",[1],100%
same,"kinase still bound, per cent of control",CDK4 CCND1 (human),98%
same,"kinase still bound, per cent of control",[2],90%
same,"kinase still bound, per cent of control",YES1 (human),92%
same,"kinase still bound, per cent of control",FGFR4 (human),100%
same,"kinase still bound, per cent of control",CDK13 (human),90%
same,"kinase still bound, per cent of control",MAP3K5 (human),100%
same,"kinase still bound, per cent of control",BRSK1 (human),82%
same,"kinase still bound, per cent of control",PAK1 (human),89%
same,"kinase still bound, per cent of control",SRMS (human),99%
same,"kinase still bound, per cent of control",LATS1 (human),100%
same,"kinase still bound, per cent of control",GRK1 (human),100%
same,"kinase still bound, per cent of control",PDGFRA (human),83%
same,"kinase still bound, per cent of control",MAP4K2 (human),94%
same,"kinase still bound, per cent of control",CIT (human),93%
same,"kinase still bound, per cent of control",HIPK1 (human),96%
same,"kinase still bound, per cent of control",[3],100%
same,"kinase still bound, per cent of control",RPS6KA6 KD1 (human),90%
same,"kinase still bound, per cent of control",CSNK1D (human),82%
same,"kinase still bound, per cent of control",RPS6KA1 KD1 (human),78%
same,"kinase still bound, per cent of control",PIP4K2B (human),94%
same,"kinase still bound, per cent of control",MLTK (human),100%
same,"kinase still bound, per cent of control",MAPKAPK5 (human),100%
same,"kinase still bound, per cent of control",MAP3K3 (human),96%
same,"kinase still bound, per cent of control",OXSR1 (human),100%
same,"kinase still bound, per cent of control",RIOK1 (human),69%
same,"kinase still bound, per cent of control",EPHB3 (human),100%
same,"kinase still bound, per cent of control",MAP3K2 (human),90%
same,"kinase still bound, per cent of control",[4],91%
same,"kinase still bound, per cent of control",DAPK1 (human),100%
same,"kinase still bound, per cent of control",NIM1 (human),100%
